In ChEMBL document CHEMBL1201862, “PubChem BioAssay data set” (2004):
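Cells were grown in 96-well plates and exposed to each compound for 48 hours at five concentrations; endpoints were interpolated linearly between bracketing concentrations, or set to the highest concentration if not reached. GI50 is the concentration that inhibits growth by half.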 The source made the active and inactive calls. Cut-off read from the data, not from the text of the source: active = GI50 up to about 1.1 µM and inactive = higher.

How the values were obtained:
Test in all cases: NCI anticancer screen, dose series, 48 h
SK-MEL-28 = test system: SK-MEL-28
MDA-MB-435 = test system: MDA-MB-435
SF-539 = test system: SF-539
NCI-H23 = test system: NCI-H23
SNB-19 = test system: SNB-19
PC-3 = test system: PC-3
HOP-62 = test system: HOP-62
COLO 205 = test system: COLO 205
HOP-92 = test system: HOP-92
SF-295 = test system: SF-295
BT-549 = test system: BT-549
IGROV-1 = test system: IGROV-1
HL-60 = test system: HL-60
T47D = test system: T47D
SW-620 = test system: SW-620
KM12 = test system: KM12
ACHN = test system: ACHN
DU-145 = test system: DU-145
Malme-3M = test system: Malme-3M
SK-MEL-2 = test system: SK-MEL-2
A498 = test system: A498
SNB-75 = test system: SNB-75
CCRF-CEM = test system: CCRF-CEM
SN12C = test system: SN12C
LOX IMVI = test system: LOX IMVI
786-0 = test system: 786-0
OVCAR-4 = test system: OVCAR-4
HCT-15 = test system: HCT-15
HT-29 = test system: HT-29
OVCAR-5 = test system: OVCAR-5
EKVX = test system: EKVX
MDA-MB-231 = test system: MDA-MB-231
MOLT-4 = test system: MOLT-4
TK-10 = test system: TK-10
RPMI-8226 = test system: RPMI-8226
SR = test system: SR
Hs-578T = test system: Hs-578T
RXF 393 = test system: RXF 393
A549 = test system: A549
UACC-62 = test system: UACC-62
K562 = test system: K562
NCI/ADR-RES = test system: NCI/ADR-RES
NCI-H226 = test system: NCI-H226
U-251 = test system: U-251
CAKI-1 = test system: CAKI-1
UACC-257 = test system: UACC-257
MDA-N = test system: MDA-N
M14 = test system: M14
NCI-H460 = test system: NCI-H460
HCC 2998 = test system: HCC 2998
UO-31 = test system: UO-31
SK-MEL-5 = test system: SK-MEL-5
OVCAR-3 = test system: OVCAR-3
MCF7 = test system: MCF7
OVCAR-8 = test system: OVCAR-8
SK-OV-3 = test system: SK-OV-3
SF-268 = test system: SF-268
HCT-116 = test system: HCT-116

Measured: GI50

O=C1Nc2ccccc2/C1=C\c1c(Cl)n(-c2ccccc2)c2ccccc12
active: MDA-MB-435 0.759 µM | HOP-92 0.946 µM | Hs-578T 0.851 µM | SF-268 0.832 µM
inactive: SK-MEL-28 12 µM | SF-539 1.87 µM | NCI-H23 2.45 µM | SNB-19 2.99 µM | PC-3 3.78 µM | HOP-62 4.68 µM | COLO 205 1.61 µM | SF-295 3.18 µM | BT-549 5.93 µM | IGROV-1 2.75 µM | HL-60 2.77 µM | T47D 3.41 µM | SW-620 2.47 µM | KM12 2.84 µM | ACHN 5.75 µM | DU-145 2.79 µM | Malme-3M 2.07 µM | SK-MEL-2 8.69 µM | A498 6.7 µM | SNB-75 1.73 µM | CCRF-CEM 6.65 µM | SN12C 3.61 µM | LOX IMVI 3.56 µM | 786-0 2.67 µM | OVCAR-4 5.02 µM | HT-29 2.43 µM | OVCAR-5 3.08 µM | EKVX 2.33 µM | MDA-MB-231 3.03 µM | MOLT-4 4.82 µM | TK-10 3.95 µM | RPMI-8226 4.92 µM | SR 2.96 µM | RXF 393 2.14 µM | A549 3.52 µM | UACC-62 8.07 µM | K562 2.48 µM | NCI/ADR-RES 2.38 µM | NCI-H226 1.7 µM | U-251 3.48 µM | CAKI-1 2.49 µM | UACC-257 9.2 µM | MDA-N 1.14 µM | M14 2.92 µM | NCI-H460 3.18 µM | HCC 2998 3.15 µM | UO-31 2.4 µM | SK-MEL-5 2.66 µM | OVCAR-3 1.92 µM | MCF7 3.44 µM | OVCAR-8 2.71 µM | SK-OV-3 4.07 µM | HCT-116 2.11 µM
2.49 µM: HCT-15
